Test results published in US10138282B2, “Peptide antagonist of LL-37” (INDIANA UNIVERSITY RESEARCH AND TECHNOLOGY CORPORATION, priority 2014, dated 2018).

How the values were obtained:
Type in all cases: cell-based, human
TLR3 signaling = test: IL-6 production (ELISA) in BEAS-2B cells induced with poly(I:C); conditions: BEAS-2B cells
Protocol: (§1) IL-6 production was quantified by ELISA using the OptEIA™ kit (BD Biosciences). A typical assay used 2×10^4 BEAS-2B cells/well grown for 24 h in flat bottom 96-well plates. Poly(I:C) was added to a final concentration of 0.13 μg/ml. Antimicrobial peptides were added to the cell culture medium to a final concentration of 3 μM unless specified otherwise. All ELISA results shown were performed in triplicate and in at least three independent experiments.
To better define how residues in LL-37 contribute to function, several variants derived from LL-37 were tested for: 1) repression of TLR4 signaling by LPS, 2) enhancement of TLR3 signaling by poly(I:C), and 3) binding to LL-37. Signaling by TLR3 and TLR4 were monitored using ELISA to detect IL-6 secreted into the medium of BEAS-2B cells.

Reovirus dsRNA, Reo S4 = test: IL-6 production in BEAS-2B cells in the presence of Reovirus dsRNA Reo S4
Protocol: as §1
Herein, we analyzed the LL-37 orthologs from Rhesus monkeys, pig, sheep, guinea pigs, rabbit, as well as mouse (FIG. 14A). All peptides were chemically synthesized and assayed for the induction of inflammatory cytokine IL-6 in the presence of the double-stranded RNA mimic, poly(I:C) or the Reovirus dsRNA, Reo S4 (FIGS. 14B and 14C). […] Importantly, all LL-37 orthologs tested had the ability to reduce IL-6 production in response to LPS (FIG. 14E).

Toll-like receptor 9 = test: IL-6 production in BEAS-2B cells in the presence of ssDNA ligand ODN

## PAMP-37: LL-37 ortholog from pig, SEQ ID NO: 22 (GLLSRLRDFLSDRGRRLGEKIERIGQKIKDLSEFFQS; (1)..(37) Pig PMAP-37; listed as Sus scrofa)
TLR3 signaling
  Enhancement of TLR3 signaling / poly(I:C)-induced IL-6, in words: failed to enhance signaling
Reovirus dsRNA, Reo S4
  Enhancement of IL-6 production / signaling by Reo S4, in words: failed to enhance signaling
Toll-like receptor 9
  Induction of signaling by the ssDNA ligand for Toll-like receptor 9, in words: failed to induce signaling
